Read-outs that look alike come from different tables or passages of the source.
What was measured:
[1] = test system: LPXTGase; assay type: biochemical, Streptococcus pyogenes; conditions: for peptide cleaved, cpm: 40 mM Tris-HCl pH 7.6, 0.1% Brij 35, control 41,530 cpm
Protocol: Enzyme Assay Method: Aliquots (10 μl) were removed from the column fractions and added to 1.5 ml Microfuge tubes. To each tube was added 30 μl of 40 mM Tris-HCl buffer, pH 7.6, containing 0.1% Brij 35, followed by a 10 μl suspension of bead-bound LPXTG-peptide substrate (0.5 to 0.8 μg, 100,000 to 200,000 cpm). The reaction mixture was incubated with vigorous shaking for 60 min at 37° C. After this time, 100 μl of water was added to each tube, and after vortex mixing, the mixture was centrifuged at 10,000 rpm for 5 min to pellet the beads. 100 μl of the supernatant was withdrawn and radioactivity was counted with a gamma counter.
The LPXTGase was exposed to a variety of salts and its activity tested for cleavage of the LPXTG (SEQ ID NO:1)-containing peptide.

[2] = test system: LPXTGase; test: Periodate treatment of LPXTGase, enzyme activity measured; assay type: biochemical, Streptococcus pyogenes; conditions: 5 mM periodate, 20 mM phosphate buffer pH 6, 4 hrs at 4° C.
Protocol: Carbohydrate composition of LPXTGase. The carbohydrate composition of purified LPXTGase was determined by the Rockefeller University Analytical Service Laboratory using a Waters 490 HPLC system. […] It seemed plausible that the charged amino acids of the enzyme are internalized and the hydrophobic amino acids are located on the exterior surface in view of the fact that the enzyme is likely to be associated with the cell membrane. […] To test this, the enzyme was incubated with 5 mM of periodate in 20 mM phosphate buffer, pH 6, for 4 hrs at 4° C., and enzyme activity was measured.

[3] = test system: trypsin; test: Periodate treatment of trypsin, enzyme activity measured; assay type: biochemical; conditions: identical manner (5 mM periodate, pH 6, 4 hrs at 4° C.)
[4] = 100 mM salt, one hour at 37° C.

| Compound | % of control (LPXTGase activity) [1] [%] | peptide cleaved, cpm ([1]; 20 mM salt, one hour at 37° C.) | peptide cleaved, cpm [1, 4] | other results |
| --- | --- | --- | --- | --- |
| [Ca+2].[Cl-].[Cl-] [Calcium chloride] | 23 | 9,706 cpm |  |  |
| O=C(O)CN(CCN(CC(=O)O)CC(=O)O)CC(=O)O [EDTA] | 5.2 | 2,147 cpm |  |  |
| Cl.NO [Hydroxylamine-HCl] | 27 |  | 11,200 cpm | effect on LPXTGase activity (general statement) [1]: inhibited |
| [Cl-].[Cl-].[Mg+2] [Magnesium chloride] | 20 | 8,615 cpm |  |  |
| [Cl-].[K+] [Potassium chloride] |  |  | 8,608 cpm | % of control (LPXTGase activity) [1, 4]: 20% |
| Cl.Cl.NCCCCN [Putrescene chloride] |  | 8,710 cpm |  | % of control (LPXTGase activity) ([1]; 20 mM salt, one hour at 37° C.): 21% |
| [Cl-].[Na+] [Sodium chloride] |  |  | 6,720 cpm | % of control (LPXTGase activity) [1, 4]: 16% |
| O=P(O)(O)O [Sodium phosphate] | 49 | 20,646 cpm |  |  |
| O=S(=O)([O-])[O-].[Na+].[Na+] [Sodium sulfate] | 57 | 23,454 cpm |  |  |
| [O-][I+3]([O-])([O-])O [periodate] |  |  |  | effect of periodate treatment on LPXTGase enzyme activity [2]: nearly completely abolished the enzyme activity; effect of periodate treatment on trypsin enzyme activity [3]: no effect |

Source: US7604975B2, “Glycosylated LPXTGases and uses thereof” (priority 2002, dated 2009)
